Assay [1] concerns the target T1, Pheromone binding protein 5 (Pbp5) mutant (Bactrocera dorsalis, UniProt A0A6I9V7R6, F147A/F31A/F95A/I28A).
T1 sequence (A0A6I9V7R6 21-147 I28A/F31A/F95A/F147A): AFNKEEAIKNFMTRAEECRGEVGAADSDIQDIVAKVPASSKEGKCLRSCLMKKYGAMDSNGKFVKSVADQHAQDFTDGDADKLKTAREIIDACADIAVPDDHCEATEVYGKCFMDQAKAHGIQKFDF
In words: direct fluorescence binding assay.

For assay [2], the target named is T2, Pheromone binding protein 5 (Pbp5) (Bactrocera dorsalis, UniProt A0A6I9V7R6).
T2 sequence (A0A6I9V7R6 21-147): T1 sequence (A0A6I9V7R6 21-147 I28A/F31A/F95A/F147A)
In words: direct fluorescence binding assay.

In assay [3] the target is T2, Pheromone binding protein 5 (Pbp5). In words: competitive fluorescence displacement of 1-NPN.

In general, Kd refers to the constant that tells how readily two partners part at equilibrium. A low value points to higher affinity. The Ki is a dissociation constant, usually derived from enzyme kinetics or from competition with a known ligand.

For the molecule `c1ccc(Nc2cccc3ccccc23)cc1` [1-NPN, N-phenyl-1-naphthylamine], the Kd in assay [1] stood at 33.9 µM; in assay [2] it was 10.6 µM.

In assay [3], `Cc1nc(C)c(C)nc1C` [TTMP, tetramethylpyrazine] displayed an inhibition constant Ki of 0.21 µM.

For the molecule `Cc1cnc(C)c(C)n1` [TMP, trimethylpyrazine], the inhibition constant Ki in assay [3] turned out to be 0.224 µM.
